Source: article PMC5829257, “Structure, computational and biochemical analysis of PcCel45A endoglucanase from Phanerochaete chrysosporium and catalytic mechanisms of GH45 subfamily C members” (Scientific Reports, 2018)

Molecular target: T1, PcCel45A (Phanerodontia chrysosporium, UniProt B3Y002)
T1 construct: gene egv; mature single catalytic domain; pEXPYR+ vector, secreted from Aspergillus nidulans A773 (Results text says A. niger)
Assay: X-ray crystallography of the complex
Assay type: binding
Details: bound at +1 and +2 subsites of the active-site groove; crystals in ammonium sulfate, Hepes pH 7.5, MPD

T1 sequence (B3Y002 entry or part of it): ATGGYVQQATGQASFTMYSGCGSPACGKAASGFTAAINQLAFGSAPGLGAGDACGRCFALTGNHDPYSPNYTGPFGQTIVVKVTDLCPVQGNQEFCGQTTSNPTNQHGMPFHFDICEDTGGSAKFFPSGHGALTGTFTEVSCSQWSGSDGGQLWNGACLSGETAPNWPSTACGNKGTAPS

Compound: OC[C@H]1O[C@@H](O[C@H]2[C@H](O)[C@@H](O)C(O)O[C@@H]2CO)[C@H](O)[C@@H](O)[C@@H]1O (stereo partly shown) [cellobiose]
- X-ray crystallography of the complex: The structure of the PcCel45A-cellobiose complex revealed a single cellobiose molecule within the active-site groove
